Test: Lubricity durability after incubation in PBS at 70° C.
Assay type: physicochemical
Conditions: PBS at 70° C. for 20 hours
Protocol: Lacking a direct assay for PEI, an indirect measure of cross-linking effectiveness was selected. This method involved measuring the stability of the cross-linked coating when incubated in PBS at 70° C. for 20 hours. […] It was assumed that this durability was only possible if cross-linking had immobilized the PEI into a cross-linked matrix. PVP which cannot participate in this cross-linking was free to diffuse through the matrix to maintain lubricity. This assumption was further validated when the covalently cross-linked coating tested as non toxic.
Primary amines react readily with epoxides to form a secondary amine alcohol. Therefore, a multifunctional epoxide has the capability of cross-linking PEI into an immobile matrix EGDE (Sigma Chemical, ethylene glycol diglycidyl ether, E27203 50% technical grade) is a diepoxide with this capability. EGDE is readily soluble in water and isopropanol and can be applied to a coated sheath by a simple dip into an EGDE solution. Effectiveness of EGDE as a cross-linker of PEI was evaluated at 0.1% and 0.5% in aqueous and isopropanol solutions. Evidence of cross-linking was determined by the durability of lubricity after incubation in phosphate buffered saline (PBS) for 20+ hours at 70° C.
This test consisted of incubation of 6 inch segments of the coated sheaths in phosphate buffered saline (PBS) in 18×150 mm test tubes at 70° C. for 20-24 hours. […]

Row | Compound | Lubricity after incubation in PBS (lubricity durability)
1 | O=CCCCC=O [Glutaraldehyde] | showed lubricity durability
2 | polyethyleneglycol diglycidyl ether | showed lubricity durability
